In BindingDB's records for doi:10.1021/jm970559i (University of Michigan, 1998) one finds IC50 data, which are given here for eight molecules.

The nature of experiment [1]: Antiviral activity against Human Immunodeficiency Virus by Reverse transcriptase assay in CEM-SS cells.
A short description of experiment [2]: Antiviral activity against Human Immunodeficiency Virus by Reverse transcriptase assay in CEM-SS.
Experiment [3] in a line: Antiviral activity against Human Immunodeficiency Virus by Reverse transcriptase assay in CEM-SS cells. The source holds these as a separate data set.
Experiment [4] is described as follows: Antiviral activity against Human Immunodeficiency Virus by Reverse transcriptase (RT) assay in CEM-SS cells.
Experiment [5] is described as follows: Antiviral activity against Human Immunodeficiency Virus by Reverse transcriptase assay CEM-SS cells.

`FC(F)(F)c1cc(Cn2c(Br)nc3cc(Cl)c(Cl)cc32)cc(C(F)(F)F)c1` [1-(3,5-Bis-trifluoromethyl-benzyl)-2-bromo-5,6-dichloro-1H-benzoimidazole]: the 50% inhibitory concentration (IC50) in experiment [1] was over 100 µM.

Molecule `Cc1cn([C@H]2C[C@H](N=[N+]=[N-])[C@@H](CO)O2)c(=O)[nH]c1=O` [1-((2R,4S,5S)-4-Azido-5-hydroxymethyl-tetrahydro-furan-2-yl)-5-methyl-1H-pyrimidine-2,4-dione] came in with an IC50 in experiment [1] of 0.0031 µM.

For the molecule `Cc1ccc(Cn2c(Cl)nc3cc(Cl)c(Cl)cc32)cc1` [2,5,6-Trichloro-1-(4-methyl-benzyl)-1H-benzoimidazole], the IC50 in experiment [2] was over 100 µM.

`O=[N+]([O-])c1ccc(Cn2c(Cl)nc3cc(Cl)c(Cl)cc32)cc1` [2,5,6-Trichloro-1-(4-nitro-benzyl)-1H-benzoimidazole]: in experiment [3], the half-inhibitory concentration (IC50) was over 100 µM.

For the molecule `Clc1ccc(Cn2c(Br)nc3cc(Cl)c(Cl)cc32)cc1Cl` [2-Bromo-5,6-dichloro-1-(3,4-dichloro-benzyl)-1H-benzoimidazole], in experiment [1], the IC50 was over 100 µM.

`Cc1cccc(Cn2c(Br)nc3cc(Cl)c(Cl)cc32)c1` [2-Bromo-5,6-dichloro-1-(3-methyl-benzyl)-1H-benzoimidazole]: in experiment [1], the half-inhibitory concentration (IC50) amounted to 66 µM.

In turn, `O=[N+]([O-])c1cccc(Cn2c(Br)nc3cc(Cl)c(Cl)cc32)c1` [2-Bromo-5,6-dichloro-1-(3-nitro-benzyl)-1H-benzoimidazole] registered an IC50 in experiment [4] of over 32 µM.

`COc1ccc(Cn2c(Br)nc3cc(Cl)c(Cl)cc32)cc1` [2-Bromo-5,6-dichloro-1-(4-methoxy-benzyl)-1H-benzoimidazole] displayed an IC50 in experiment [5] of over 100 µM.

Usually IC50 stands for the concentration that inhibits the measured activity by half. A higher IC50 goes with a need for much substance.
